In the METLIN SMRT retention time set (Domingo-Almenara et al. 2019):

Assay: gradient 5% acetonitrile 3 min, to 50% in 2 min, to 85% in 15 min, held 3 min, 100 µL/min
Settings: column: Zorbax Extend-C18 2.1 x 50 mm; eluents: water / acetonitrile, 0.1% formic acid
How it was run: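 The mobile phases were water and acetonitrile, each with 0.1% formic acid, pumped at 100 μL/min through a Zorbax Extend-C18 column (2.1 × 50 mm, 1.8 μm). Pure standards were injected as mixtures of ~100 molecules and detected by a quadrupole time-of-flight mass spectrometer in positive and negative ionization mode. Retention time came from computationally picked adduct peaks, each inspected by hand.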

Compound | RP-LC retention time
COCC(=O)NC1CCN(c2ccc(C)c(C)c2)C1=O (centres undefined) | 705 s
O=C(Nc1cccc(-c2nc3ccccc3o2)c1)c1ccc(F)cc1F | 994 s
COc1ccc(Nc2c(-c3ccc(SC)cc3)nc3cnccn23)cc1OC | 818 s
Cc1cc(=O)n(CC#N)c(N2CCCCC2)n1 | 655 s
COc1ccc(NC(=O)Nc2cccc(-c3ccc(N4CCOCC4)nn3)c2)cc1OC | 586 s
CS(=O)(=O)c1ccc(Nc2nc(C(=O)Nc3ccc(F)c(Cl)c3)cs2)cc1 | 843 s
CN(C1CCc2nn(CC3CC3)c(=O)n2CC1)S(=O)(=O)c1cccc(F)c1 (centres undefined) | 777 s
O=C(Nc1ccc(OCc2nnc(-c3ccccc3)o2)cc1)c1ccc(Br)o1 | 936 s
COc1ccc(OC)c(CNC(=O)Cc2nnc(-c3cccs3)o2)c1 | 700 s
COc1cc(NC(=O)Cn2nc3c4cc(F)ccc4ncn3c2=O)cc(OC)c1 | 697 s
Cc1ccc(C(C)C)c(OCC(=O)Nc2ccc(C(=O)O)cc2)c1 | 929 s
COc1ccc(N2CCN(C(=O)c3[nH]c(C)c(S(=O)(=O)N4CCC(C)CC4)c3C)CC2)cc1 | 896 s
Cc1ccc([N+](=O)[O-])cc1NC(=O)Nc1ccc(S(N)(=O)=O)cc1 | 786 s
COc1ccc(NC(=O)CSc2cc(C)nc(-c3cnccn3)n2)cc1Cl | 757 s
CC(C)CN1CCn2cc(S(=O)(=O)NCc3ccc(F)c(Cl)c3)cc2C1=O | 855 s
COc1ccc(CNC(=O)C2(C)CCN(C(=O)Nc3cc(OC)c(OC)c(OC)c3)CC2)cc1 | 733 s
CSc1cccc(NC(=O)N2CCN(C)CC2)c1 | 647 s
CN(C)C(=O)c1cc2cccc3c2n1CCS3 | 816 s
Cc1ccc(Nc2nc(-c3cc(C)ccc3C)cs2)nc1 | 902 s
COc1ccc(CNC(=O)Cc2nnc(-c3ccccn3)o2)cc1OC | 622 s
CCOC(=O)C1=C(N)Oc2c(c(=O)[nH]c3ccc(C)cc23)C1c1ccc(OC)cc1 (centres undefined) | 881 s

Compound | RP-LC retention time
COCCc1noc(C2Cc3ccccc3N2C(=O)Nc2cc(OC)cc(OC)c2)n1 (centres undefined) | 929 s
CC(C)Cc1nc(N2CCN(C(=O)c3ccc([N+](=O)[O-])cc3)CC2)c(C#N)c2c1COC(C)(C)C2 | 1220 s
O=C(N1CCN(c2ccccc2F)CC1)C1(CCO)CCN(c2ncccn2)C1 (centres undefined) | 652 s
O=C(Nc1cnc(N2CCOCC2)nc1)c1cccc(Br)c1 | 828 s
COCCc1noc(-c2cnc3nc(C)ccc3c2Nc2cccc(Cl)c2)n1 | 763 s
COc1ncc(C(=O)Nc2ccc(Cl)cc2)c(C)n1 | 786 s
COc1ccc(-c2nc3cc(C)ccn3c2NC(=O)c2ccc(OC)cc2OC)cc1 | 706 s
Cc1ccc(C(C)NC(=O)c2ccc3c(c2)nc2n3CCN(C(C)C)C2=O)c(C)c1 (centres undefined) | 786 s
O=S(=O)(Cc1cccc(F)c1)NCCc1ccsc1 | 852 s
CCn1c(=O)c2c(cc(C)n2C)n(CC(=O)Nc2ccc(C)cc2C)c1=O | 812 s
COc1ccc(OC)c(-c2nc(Nc3ccc(C)c(Cl)c3)sc2CC(=O)O)c1 | 972 s
CC1=C(c2cccc(Cl)c2)S(=O)(=O)N=C1N1CCCN(C(=O)c2ccsc2)CC1 | 851 s
CCc1cc(C(=O)Nc2cc(Cl)ccc2OC)nc2ccnn12 | 1210 s
CC(C)CN1CCN(Cc2nc(-c3ccc(N4CCSCC4)nc3)no2)CC1 | 635 s
CC12CC(Br)(Br)C(=O)C3C1CCCC32 | 1100 s
NNC(=O)CNc1cccc(Br)c1 | 673 s
O=C(C1CCC1)N1CCC(n2cnnc2C2CC2)CC1 | 598 s
COc1ccc(NC(=O)c2c(F)cccc2F)c([N+](=O)[O-])c1 | 831 s
Cn1nccc1-c1cccc(-c2noc(-c3ccccc3Cl)n2)c1 | 1170 s
O=C(CC1CCN(C(=O)c2cc(F)ccc2F)C1)NC1CC1 (centres undefined) | 630 s

Continued, values first:

RP-LC retention time | Compound
607 s | Cn1c(CN2CCN(C(=O)c3ccco3)CC2)nc2cc(NC(=O)c3ccco3)ccc21
835 s | CCn1cc(-c2nc(CC(=O)NCc3ccc4c(c3)OCO4)cs2)c2cccnc21
887 s | COc1ccc(CNC(=O)CN2C(=O)C3CCCCN3c3ccc(S(=O)(=O)N(C)C)cc32)cc1 (centres undefined)
670 s | CCNC(=O)C1CCCN(c2nc3ncn(CC(=O)Nc4ccc(F)cc4F)c(=O)c3s2)C1 (centres undefined)
876 s | O=C(NCc1ccccc1F)c1cc(=O)n2c(nc3ccccc32)s1
656 s | COc1ccc(-c2ccc(N3CCN(C(=O)Cc4cn(C)c5ccccc45)CC3)nn2)cc1
884 s | CCOC(=O)C1=C(CN2CCC(Cc3ccccc3)CC2)NC(=O)NC1c1cccs1 (centres undefined)
726 s | CCN(CC)CCCNC(=O)C1CCCN(c2nc3ccccc3n(Cc3ccccc3)c2=O)C1 (centres undefined)
874 s | CCOCN(C(=O)Cn1c(COC)nc2ccccc21)c1c(C)cccc1CC
790 s | CCOC(=O)c1c(C)[nH]c(C(=O)N2CCCC(C(=O)NCc3ccccc3F)C2)c1C (centres undefined)
1060 s | COc1ccc(-c2nnc(-c3ccccc3Cl)o2)cc1S(=O)(=O)N1CCCCC1
764 s | Cc1sc2ccn(Cc3ccc(F)cc3)c(=O)c2c1C(=O)N1CCCC1
585 s | CN1CCN(CCNC(=O)c2cc(-c3cccnc3)nc3ccc(Br)cc23)CC1
735 s | CCCC(NC(=O)c1ccc(C)cc1C)C(=O)Nc1nc2ccccc2[nH]1 (centres undefined)
1100 s | CCCN1C(=O)COc2ccc(-c3noc(-c4cccc(NC(=O)c5ccco5)c4)n3)cc21
691 s | CC(NC(=O)c1ccco1)c1nc2ccccc2n1CC(=O)N(C(C)C)C(C)C (centres undefined)
1120 s | CC1CCN(S(=O)(=O)c2ccc(-c3nnc(C(=O)NCc4ccc(Cl)cc4)o3)cc2)CC1
875 s | CC1=C(c2ccc(Cl)cc2)S(=O)(=O)N=C1N1CCCN(C(=O)CC(C)C)CC1
853 s | Cc1ccc2c(c1)N(C(=O)Cn1ccc3ccn(Cc4ccccc4)c3c1=O)CCO2
974 s | Cc1ccc(CNC(=O)C2CCCN(S(=O)(=O)c3cc(-c4noc(C)n4)cs3)C2)cc1 (centres undefined)
707 s | CCc1nc2cc3c(cc2n1CC(=O)Nc1ccc(Br)cc1)OCCO3
1270 s | Cc1nn(-c2nc(CC(=O)Nc3nc(-c4ccccc4)cs3)cs2)c(C)c1Cl
945 s | CC(C)(C)c1cccc(NC(=O)C2CCc3nc(N4CCOCC4)ncc3C2)c1 (centres undefined)
907 s | Cc1c(S(=O)(=O)NC2CCCc3ccccc32)cc(C(=O)N2CCCCC2)n1C (centres undefined)

RP-LC retention time | Compound
956 s | O=C(O)c1cnc(N2CCCCC2)nc1-c1ccccc1
569 s | Cn1ncc(N2CCC(C(=O)NCc3nc4ccccc4n3C)C2)cc1=O (centres undefined)
722 s | Cc1nc2ccccc2c(=O)n1Cc1noc(C2CC(=O)N(c3ccccc3)C2)n1 (centres undefined)
763 s | COc1ccc(NC(=O)CCOc2ccccc2)cc1
673 s | COc1ccccc1CCNC(=O)C1CN(C(=O)c2c[nH]c3ccccc23)C1
736 s | C=CCNC(=O)N1CCCN(C2=NS(=O)(=O)C(c3ccc(F)cc3)=C2C)CC1
562 s | COc1ccc2c(c1)c(CN1CCC(C(=O)NCCN3CCCCC3)CC1)cn2C
581 s | CCN(CC)CCCNC(=O)c1cc2n(n1)CC(C)(C(=O)NCc1ccccc1)N(C)C2=O (centres undefined)
656 s | CCOC(=O)N1CCN(c2ncc(C(=O)NCc3ccccc3)c(N)n2)CC1
959 s | Cc1ccnc(SCC(=O)Nc2nc(-c3ccccc3)c(-c3ccccc3)o2)n1
946 s | CN1C(=O)C2CCCCN2c2ccc(C(=O)N3CCc4ccccc4C3)cc21 (centres undefined)
798 s | CC(C)N1C(=O)c2cccnc2Sc2cc(NC(=O)C3CCC3)ccc21
802 s | Cn1cc(-c2cc3n(n2)CCC(=O)N3CCCC(=O)N2CCCCC2)c2ccccc21
766 s | O=C(c1cnn2cccnc12)N1CCCC1c1ccc(Cl)cc1 (centres undefined)
700 s | COc1ccc(-c2cc3n(n2)CCCN(C(=O)C2CCCO2)C3)cc1 (centres undefined)
885 s | Cn1c(=O)n(C)c2cc(S(=O)(=O)c3ccc(F)cc3)c(NC(=O)c3ccccc3)cc21
651 s | O=C(c1cccc(-n2cnnn2)c1)N1CCC(c2nnc(-c3ccco3)s2)CC1
1260 s | CCOC(=O)c1cc(C2CC2)nc2c1c(=O)n(Cc1ccc(C)cc1)c(=O)n2C
660 s | O=C(Cn1c2ccccc2n2c(=O)cc(-c3ccncc3)nc12)NC1CCCC1
628 s | O=C(NCCCN1CCCC1)c1ccc2c(c1)nnn2Cc1ccccc1
850 s | CCOc1ccccc1N(C)C(=O)C1CCCN(c2ncnc3c2nc2n3CCCCC2)C1 (centres undefined)
954 s | O=C(Nc1ccc(F)cc1)C(=O)c1cn(CC(=O)N2CCCC2)c2ccccc12
643 s | CCOC(=O)N1CCN(C(=O)CN2C(=O)c3ccccc3S2(=O)=O)CC1
591 s | COc1ccc(OCC(O)CN(CCO)CC(O)Cn2ccc3ccccc32)cc1 (centres undefined)
